Experiments:
CDK9 = biological target: T1, CDK9 (Homo sapiens, UniProt P50750); experiment: KdELECT binding assay, CDK9; settings: CDK9, Table 7
T1 construct: made in house; host or cells: E. coli BL21-derived host (T7 phage) or HEK-293 ('BEK-293' [sic])
Procedure, shortened: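 Phage-tagged or HEK-derived DNA-tagged kinases competed 1 h at room temperature against bead-immobilised biotinylated ligand in SeaBlock/PBS/Tween/DTT buffer, 0.9% DMSO final. Bound kinase eluted with 0.5 μM free ligand and quantified by qPCR; Kd from 11-point 3-fold dilution series.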

[1] = test system: T-Rex 293 cell line SC cells having increased expression of progesterone receptor isoform B protein; experiment: Cellular growth inhibition, T-Rex 293 SC cells with doxycycline (increased progesterone receptor isoform B expression); type: cell-based; settings: with 10 ng/mL doxycycline (increased progesterone receptor isoform B), 72 hours, CellTiter-Glo 2.0

T1 sequence (P50750 whole entry): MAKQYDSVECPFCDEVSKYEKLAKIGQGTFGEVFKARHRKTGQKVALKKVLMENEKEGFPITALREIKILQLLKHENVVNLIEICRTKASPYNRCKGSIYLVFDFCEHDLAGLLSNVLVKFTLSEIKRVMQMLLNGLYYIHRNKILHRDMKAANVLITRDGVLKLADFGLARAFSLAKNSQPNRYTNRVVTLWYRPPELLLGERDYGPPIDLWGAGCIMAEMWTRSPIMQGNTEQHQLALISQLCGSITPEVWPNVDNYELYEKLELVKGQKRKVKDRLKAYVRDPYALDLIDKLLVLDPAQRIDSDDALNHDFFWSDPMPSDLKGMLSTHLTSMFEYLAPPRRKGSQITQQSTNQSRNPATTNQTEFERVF

Compound | Kd (CDK9) [nM] | GI50 [1] [nM]
CCc1cnn2c(NCc3ccc(OCCOCCOCCOC4CCN(c5ccc(C(=O)N[C@H]6C(C)(C)[C@H](Oc7ccc(C#N)c(Cl)c7)C6(C)C)nn5)CC4)nc3)cc(N3CCCC[C@H]3CCO)nc12 [Compound I-44, N-((1r,3r)-3-(3-chloro-4-cyanophenoxy)-2,2,4,4-tetramethylcyclobutyl)-6-(4-(2-(2-(2-((5-(((3-ethyl-5-((S)-2-(2-hydroxyethyl)piperidin-1-yl)pyrazolo[1,5-a]pyrimidin-7-yl)amino)methyl)pyridin-2-yl)oxy)ethoxy)ethoxy)ethoxy)piperidin-1-yl)pyridazine-3-carboxamide] | 50 to 500 | < 500
CCc1cnn2c(NCc3ccc(OC4CCN(CC5CCN(c6ncc(C(=O)N[C@H]7C(C)(C)[C@H](Oc8ccc(C#N)c(Cl)c8)C7(C)C)cn6)CC5)CC4)nc3)cc(N3CCCC[C@H]3CCO)nc12 [Compound I-46] | < 50 | < 500
CCc1cnn2c(NCc3ccc(OCC4CCN(CC5CCN(c6ncc(C(=O)N[C@H]7C(C)(C)[C@H](Oc8ccc(C#N)c(Cl)c8)C7(C)C)cn6)CC5)CC4)nc3)cc(N3CCCC[C@H]3CCO)nc12 [Compound I-51] | 50 to 500 | < 500
CC(C)n1cc(-c2ccnc3[nH]c(C4CCN(CCN5CCN(CC6CCN(c7ncc(C(=O)NC8C(C)(C)C(Oc9ccc(C#N)c(Cl)c9)C8(C)C)cn7)CC6)CC5)CC4)cc23)ccc1=O (stereo not shown) [Compound I-74, N-[3-(3-chloro-4-cyano-phenoxy)-2,2,4,4-tetramethyl-cyclobutyl]-2-[4-[[4-[2-[4-[4-(1-isopropyl-6-oxo-3-pyridyl)-1H-pyrrolo [2,3-b]pyridin-2-yl]-1-piperidyl]ethyl]piperazin-1-yl]methyl]-1-piperidyl]pyrimidine-5-carboxamide] | < 50 | < 500
CC1(C)[C@H](NC(=O)c2cnc(N3CCC(CN4CCN(CCN5C/C=C/CCOc6cccc(c6)-c6ccnc(n6)Nc6cccc(c6)C5)CC4)CC3)nc2)C(C)(C)[C@H]1Oc1ccc(C#N)c(Cl)c1 [Compound I-94] | 500 to 2500 | 500 to 1500
Cc1ncc(-c2nc(Nc3ccc(C(=O)N4CC[C@H](N(C)CCOC5CCN(c6ncc(C(=O)N[C@H]7C(C)(C)[C@H](Oc8ccc(C#N)c(Cl)c8)C7(C)C)cn6)CC5)C4)cc3)ncc2F)n1C(C)C [Compound I-95, N-[3-(3-chloro-4-cyano-phenoxy)-2,2,4,4-tetramethyl-cyclobutyl]-2-[4-[2-[[(3S)-1-[4-[[5-fluoro-4-(3-isopropyl-2-methyl-imidazol-4-yl)pyrimidin-2-yl]amino]benzoyl]pyrrolidin-3-yl]-methyl-amino]ethoxy]-1-piperidyl]pyrimidine-5-carboxamide] | 50 to 500 | < 500
Cc1ncc(-c2nc(Nc3ccc(C(=O)N4CC[C@H](N(C)CCOCCOCCOC5CCN(c6ncc(C(=O)N[C@H]7C(C)(C)[C@H](Oc8ccc(C#N)c(Cl)c8)C7(C)C)cn6)CC5)C4)cc3)ncc2F)n1C(C)C [Compound I-96] | 50 to 500 | 1500 to 3000
Cc1ncc(-c2nc(Nc3ccc(C(=O)N4CC[C@H](N(C)CCOCCOCCOCCOCCOC5CCN(c6ncc(C(=O)N[C@H]7C(C)(C)[C@H](Oc8ccc(C#N)c(Cl)c8)C7(C)C)cn6)CC5)C4)cc3)ncc2F)n1C(C)C [Compound I-97] | 50 to 500 | 500 to 1500
